# In the supplement of paper PMC4862054:
# What was measured:
# Conditions in all cases: incubation time: 72 h
# CAL-120 [1] = experiment: normalised response (% of control), CellTiter-Glo; higher = more viable cells (100 = DMSO, 0 = benzethonium chloride kill control)
# Experimental: (§1)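 DSRT, 72 h incubation, CellTox Green / CellTiter-Glo readout. Signal is normalised to DMSO and benzethonium chloride controls. Value is the normalised response at the highest dose.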
# CAL-148 [2] = experiment: as above
# Experimental: as §1
# BT-549 [3] = experiment: as above
# Experimental: as §1
# MFM-223 [4] = experiment: as above
# Experimental: as §1
# CAL-51 [5] = experiment: as above
# Experimental: as §1
# CAL-120 [6] = experiment: normalised response (% of control), CellTox Green; higher = less cell death (100 = DMSO, 0 = benzethonium chloride kill control)
# Procedure, shortened: (§2)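 Breast cancer cell lines, seeded at 20 µl suspension per well, were incubated for 72 h in 384-well plates containing compound at 5 concentrations. These concentrations rose in 10-fold steps over a 10,000-fold range set for each compound. CellTox Green fluorescence (485/520 nm) was read, then CellTiter-Glo luminescence after 10 min at room temperature, and each plate was normalised to 0.1 % DMSO (100) and a positive kill control (0). Values are normalised signals, each at one concentration.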
# HDQ-P1 [7] = experiment: as above
# Procedure, shortened: as §2
# MDA-MB-468 = experiment: as above
# Procedure, shortened: as §2
# CAL-148 [8] = experiment: as above
# Procedure, shortened: as §2
# MDA-MB-231 = experiment: as above
# Procedure, shortened: as §2
# BT-549 [9] = experiment: as above
# Procedure, shortened: as §2
# MCF-10A = experiment: as above
# Procedure, shortened: as §2
# HCC1143 = experiment: as above
# Procedure, shortened: as §2
# CAL-85-1 [10] = experiment: as above
# Procedure, shortened: as §2
# MDA-MB-453 [11] = experiment: as above
# Procedure, shortened: as §2
# MFM-223 [12] = experiment: as above
# Procedure, shortened: as §2
# Hs578T = experiment: as above
# Procedure, shortened: as §2
# DU-4475 [13] = experiment: as above
# Procedure, shortened: as §2
# BT-474 = experiment: as above
# Procedure, shortened: as §2
# HCC1599 = experiment: as above
# Procedure, shortened: as §2
# MDA-MB-436 = experiment: as above
# Procedure, shortened: as §2
# CAL-51 [14] = experiment: as above
# Procedure, shortened: as §2
# HCC1937 = experiment: as above
# Procedure, shortened: as §2
# HDQ-P1 [15] = experiment: normalised viability (% of control), CellTiter-Blue; higher = more viable cells (about 100 = DMSO control)
# Experimental: (§3)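 DSRT, CellTiter-Blue viability, 72 h incubation. Signal is normalised to DMSO and benzethonium chloride controls. Value is the normalised response at dose 7.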
# CAL-148 [16] = experiment: as above
# Experimental: as §3
# CAL-85-1 [17] = experiment: as above
# Experimental: as §3
# MDA-MB-453 [18] = experiment: as above
# Experimental: as §3
# DU-4475 [19] = experiment: as above
# Experimental: as §3
# CAL-51 [20] = experiment: as above
# Experimental: as §3
SMILES,normalised response (CAL-120 [1]) [%],normalised response (CAL-148 [2]) [%],normalised response (BT-549 [3]) [%],normalised response (MFM-223 [4]) [%],normalised response (CAL-51 [5]) [%],normalised response (CAL-120 [6]) [%],normalised response (HDQ-P1 [7]) [%],normalised response (MDA-MB-468) [%],normalised response (CAL-148 [8]) [%],normalised response (MDA-MB-231) [%],normalised response (BT-549 [9]) [%],normalised response (MCF-10A) [%],normalised response (HCC1143) [%],normalised response (CAL-85-1 [10]) [%],normalised response (MDA-MB-453 [11]) [%],normalised response (MFM-223 [12]) [%],normalised response (Hs578T) [%],normalised response (DU-4475 [13]) [%],normalised response (BT-474) [%],normalised response (HCC1599) [%],normalised response (MDA-MB-436) [%],normalised response (CAL-51 [14]) [%],normalised response (HCC1937) [%],normalised viability (HDQ-P1 [15]) [%],normalised viability (CAL-148 [16]) [%],normalised viability (CAL-85-1 [17]) [%],normalised viability (MDA-MB-453 [18]) [%],normalised viability (DU-4475 [19]) [%],normalised viability (CAL-51 [20]) [%]
Cn1cc(C2=Nc3cc(NC(=O)C(N)C4CCCCC4)cc4c3C2=CNNC4=O)cn1 (stereo not drawn) (10000 nM),42.8,53.1,12.1,50.4,25.2,89.9,-67.6,13.5,58.5,54.2,39.3,31.3,115,59.8,41.1,10.9,84.6,83.1,97.1,82.4,92.7,-9.5,95.9,,,,,,
COc1cc2c(cc1O)CC[C@@H]1[C@@H]2CC[C@]2(C)[C@@H](O)CC[C@@H]12 [2-methoxyestradiol] (10000 nM),62.6,39.8,48.8,54.4,31.1,78.8,94.4,77.4,78.8,-158,85.8,48.3,106,51.6,94.9,52.5,-39.2,97.4,70.9,89,81.1,8.99,90,,,,,,
Cc1sc2c(c1C)C(c1ccc(Cl)cc1)=N[C@@H](CC(=O)OC(C)(C)C)c1nnc(C)n1-2 [(+)JQ1] (10000 nM),78,49.1,35.7,45.1,47.5,91.3,87.6,-39.7,50.8,62.5,66.8,101,123,24,102,97.8,100,81.4,92.8,87.9,72.9,14.5,68.2,,,,,,
Oc1ncnc2[nH]ncc12 [Allopurinol] (10000 nM),99.1,106,102,103,131,101,108,79,98,108,89.5,102,117,83.4,75.7,94.1,70.8,98.6,104,102,99.7,116,76,,,,,,
O=C1CN2Cc3c(ccc(Cl)c3Cl)N=C2N1 [Anagrelide] (10000 nM),96.5,96.4,97.3,99.6,88,98.9,78.9,67,60.6,94.7,89.6,53.2,85.1,108,100,69.6,100,96.3,101,99,94.9,54.9,106,,,,,,
Nc1ncn([C@@H]2O[C@H](CO)[C@@H](O)[C@H]2O)c(=O)n1 [Azacitidine] (1000 nM),,,,,,101,59.9,33.9,84.3,93.2,108,101,,98.4,110,89.6,,97,80.4,96.4,97.7,105,,106,97.3,91.4,98.9,116,96.7
Nc1ncn([C@@H]2O[C@H](CO)[C@@H](O)[C@H]2O)c(=O)n1 [Azacitidine] (10000 nM),61.6,87.7,45,53.8,91.2,96.5,103,73.4,97.7,75.5,99.8,81.2,87.7,110,98.8,89.7,84.9,86.7,80,92,55.6,75.7,93.3,,,,,,
O=NN(CCCl)C(=O)NCCCl [Carmustine] (10000 nM),96.2,100,110,94.4,116,98.7,91.3,138,98.7,96.9,84.3,104,54.2,114,99.4,94.8,100,95.3,98.8,102,88.9,100,86.4,,,,,,
CC1=C2C[C@H]3[C@@H](CC=C4C[C@@H](O)CC[C@@]43C)[C@@H]2CC[C@]12O[C@@H]1C[C@H](C)CN[C@H]1[C@H]2C [Cyclopamine] (10000 nM),103,110,58,101,106,97.8,110,155,100,116,59,58.9,,66.8,103,89.6,51.4,103,98,101,92.2,98.9,,,,,,,
CC(=O)O[C@@]12CO[C@@H]1C[C@H](O)[C@@]1(C)C(=O)[C@H](O)C3=C(C)[C@@H](OC(=O)[C@H](O)[C@@H](NC(=O)OC(C)(C)C)c4ccccc4)C[C@@](O)([C@@H](OC(=O)c4ccccc4)[C@H]21)C3(C)C [Docetaxel] (1000 nM),55.3,45.5,17.1,48.9,32.9,89.9,35.5,134,84.2,-47.2,38.7,36.3,55.4,29.6,92.4,53.9,22.6,98.5,58.4,88.5,71.9,45.6,46.5,,,,,,
CC1(C)CNc2cc(NC(=O)c3cccnc3NCc3ccncc3)ccc21 [Motesanib] (10000 nM),103,86.9,97,88.1,122,96.7,94.1,123,102,114,103,80.4,94,94.5,101,97.2,86.8,101,98.2,108,109,101,98.6,,,,,,
CC[C@@H]1C(=O)OC[C@@H]1Cc1cncn1C [Pilocarpine] (40000 nM),91.2,88.6,102,97.6,134,52.5,,,96.3,93.1,107,83.9,80.7,114,93.9,97.4,,96.7,98.6,97,92.3,98.4,97.7,,,,,,
CC(C)(C)c1cnc(CSc2cnc(NC(=O)C3CCNCC3)s2)o1 [SNS-032] (10000 nM),43.3,77.1,5.15,32,16.7,94.1,68.4,44.3,91.3,-26.5,76,26.3,76.9,42.8,99.2,76.7,41.9,91.7,93,77.1,94.2,81.1,76.1,,,,,,
Cn1cnc2c(F)c(Nc3ccc(Br)cc3Cl)c(C(=O)NOCCO)cc21 [Selumetinib] (10000 nM),66.8,76.1,84.1,67.9,106,87.3,75,-53.9,96,21.6,99.7,74.4,97,108,101,100,89.5,62.3,99.4,108,101,101,98.3,,,,,,
Nc1nc2[nH]cnc2c(=S)[nH]1 [Thioguanine] (10000 nM),37,68.2,48.5,72.9,28.6,97.7,101,51.8,92.2,85.2,87,108,106,97.4,97.6,103,133,91.9,103,96.2,93.2,80.3,83.7,,,,,,
